Entries after “also recorded” stand apart in the source; their conditions may differ.
Key:
[1] = test system: C57BL6/J mice; assay: Scopolamine-induced short-term memory impairment, Y maze test; format: in vivo, mouse; details: per os gavage; scopolamine 0.6 mg/kg i.p. 30 min prior to Y maze test
Description: (§1) In vivo experiments were carried out according to the National Institute of Health guidelines for the care and use of laboratory animals, approved by the French Ministry for Research and Technology. In the course of experiments, animals were housed at a standard temperature (22±1° C.) and in a light-controlled environment (lights on from 7 a.m. to 8 p.m.) with ad libitum access to food and water. Male C57BL/6 mice (C57BL/6J Rj, ref. SC-CJ-12w-M, Janvier, France) were housed 5 animals per cage. From one week before the start of the experiment until the end of the experiment, mice were housed individually. Animals were monitored twice-a-day by laboratory personnel (8 a.m. and 4 p.m.). In this project, young (14 weeks old) as well as aged (15-16 months old) mice were used. Experiments were carried out using 12 mice per experimental group.
Investigation of short-term working memory—Y maze test Y maze tests were carried out as previously described. Prior to testing, mice were brought to the experimental room for at least 30 min to acclimatize to experimental room conditions. […] Each arm entry was recorded with those entries being counted where the mouse completely placed its hind paws in the chosen arm. […] Results were calculated as the percentage of the ratio of actual detected alternations to possible alternations (defined as the number of total arm entries minus 2). […]

[2] = test system: HMOX-1 gene; assay: Gene expression in primary astrocytes by qRT-PCR; format: cell-based, rat; details: 3 h, Example 2 at 330 nM and 1000 nM, PBT2 at 1000 nM
Description: (§2) Pure astrocyte culture was obtained from neonatal rats according to the protocol found in literature (Protocols for Neural Cell Culture 2001, pp 117-127. ch 9. Ruth Cole, Jean de Vellis. Preparation of Astrocyte, Oligodendrocyte, and Microglia Cultures from Primary Rat Cerebral Cultures). Astrocytes (1 million) were cultured in 100 mm TC-treated culture dishes (Orange Scientific, Belgium) in an incubator set at 37° C. and 5% CO2 with humid air. The R-enantiomeric derivative according to Example 2 was added to cells in two final concentrations: 330 nM and 1000 nM. Cells were also treated with 1000 nM PBT2 which bears the basic structure of the R-enantiomer according to Example 2 (8-hydroxy-quinoline ring) but contains conformational differences and was developed for the treatment of neurodegenerative disorders (Pub. No.: WO/2004/007461). Treatments were carried out with a 100 μM DMSO-based stock solution. Control cells were treated with the same amount of DMSO without the agent. Each treatment was conducted in three separate culture dishes. After treatment, cells were incubated at 37° C. for 3 h, then the medium was removed, cells were washed with PBS and total RNA was extracted from cells with the Accuzol™ Total RNA Extraction Solution (Bioneer, Daejeon, South Korea), according to the manufacturer's protocol. cDNA transcription was carried out with the High Capacity cDNA Reverse Transcription Kit (Life Technologies, Foster City, Calif., USA). During the test, the expression of four genes (PGK1, EPO, HMOX-1, VEGF) controlled by HIF1a was determined by qRT-PCR, with HPRT gene serving as a control. Relative expression of genes in treated samples was compared to untreated controls. The PCR was conducted with a LightCycler® Nano Instrument (Roche, Budapest, Hungary) in the presence of UPL (Universal Probe Library) probes (HPRT: 95, HMOX1: 4, EPO: 16, VEGF: 1, PGK1: 66), specific primers (HPRT1: 5′-gaccggttctgtcatgtcg-3′, HPRT2: 5′-[…]-3′; HMOX1-1: 5′-[…]-3′, HMOX1-2: 5′-ctgcagctcctcaaacagc-3′; EPO1: 5′-[…]-3′, EPO2: 5′-ccttctgcacagcccatt-3′; VEGF1: 5′-[…]-3′, VEGF2: 5′-[…]-3′; PGK1-1: 5′-[…]-3′, PGK1-2: 5′-gacttggctccattgtcca-3′) in 20 μl PCR reaction volume with 20 ng cDNA template and 10 μl Lightcycler DNA Probes Master (5×) Reagent Kit (Roche) according to the following protocol: activation of enzyme at 95° C. for 10 min, 50 cycles: denaturation at 95° C. for 15 sec, hybridization and polymerization, then detection at 60° C. for 30 sec.

[3] = test system: PGK1 gene; assay: Gene expression in primary astrocytes by qRT-PCR; format: cell-based, rat; details: in the cells
Description: as §2

[4] = test system: VEGF gene; assay: Gene expression in primary astrocytes by qRT-PCR; format: cell-based, rat; details: in the cells
Description: as §2

[5] = test system: EPO gene; assay: Gene expression in primary astrocytes by qRT-PCR; format: cell-based, rat; details: 3 h, Example 2 at 330 nM and 1000 nM, PBT2 at 1000 nM
Description: as §2

[6] = test system: C57BL6/J mice; assay: Short-term memory impairment caused by amyloid peptide aggregates (icv Aβ oligomers), Y maze test; format: in vivo, mouse; details: 4 mg/kg body weight per os once daily for four days; Y maze at day 4 post Aβ
Description: as §1
Investigation of short-term working memory—Y maze test Y maze tests were carried out as previously described. Prior to testing, mice were brought to the experimental room for at least 30 min to acclimatize to experimental room conditions. The Y maze is made of opaque Plexiglas and each arm is 40 cm long, 16 cm high, 9 cm wide and positioned at equal angles. The apparatus was placed in the test room in such a way that it was brightened homogeneously with 12-15 lux in the arms as well as in the central zone. One mouse at a time was placed at the end of one arm and was allowed to move in the maze freely during a 5 min examination. Each arm entry was recorded with those entries being counted where the mouse completely placed its hind paws in the chosen arm. […] Results were calculated as the percentage of the ratio of actual detected alternations to possible alternations (defined as the number of total arm entries minus 2).
For the examination of memory impairment caused by Aβ oligomers, a mouse model developed and validated by SynAging was used. […] At day 4 post Aβ treatment, short-term memory was assessed with the Y maze test. […]
At day 4 post Aβ treatment, short-term memory was assessed with the Y maze test.

[7] = test system: BALB/c ear skin graft on C57BL/6 recipient mice; assay: Mouse skin transplantation, graft rejection scoring; format: in vivo; details: 5 mg/kg once every day from transplantation; Example 2 orally, tacrolimus intraperitoneal; scoring at day 9 and day 10
Description: Mouse skin transplantation is a standard method to assay host T cell responses to MHC-disparate donor antigens, which protocol was followed in the present example (Garrod and Cahalan; 2008). Briefly, WT C57BL/6 recipient mice (8-12 weeks old) and WT BALB/c donor mice (8-12 weeks old) were anesthetized with a combination of 10 mg/kg Xylazine and 100 mg/kg Ketamine administered by i.p. injection and 0.05 mg/kg Buprenorphine was administered by subcutaneous injection for analgesia. Ear skin (1.0 cm2) from the WT BALB/c donor mouse was grafted onto the flank of the WT C57BL/6 recipient. The implanted skin (graft) was covered with a sterile bandage, which was removed on day 7 post-transplant.
Recipients received either no treatment (controls), or treated with compound according to Example 2 orally at 5 mg/kg dose, once every day until the end of the experiment from the day of transplantation. […]
Different scores were used to define the quality of the grafts: intact grafts (Score 0), early stages of rejection (Score 1-4, corresponding to first clear signals of graft rejection: 1; >25% rejection rate: 2; >50% rejection rate: 3; >75% rejection rate: 4) up to complete graft rejection (Score 5). […] Average scores with SEM were calculated for each group.

Q: For `Cc1ccnc(N[C@@H](c2ccc(C(F)(F)F)cc2)c2ccc3cccnc3c2O)n1` [Example 3, 7-[(S)-[(4-Methylpyrimidin-2-yl)amino][4-(trifluoromethyl)phenyl]methyl]quinolin-8-ol], which “inhibition of scopolamine-induced short-term memory impairment” value [1] is on record?
A: did not inhibit

Q: What about the “activation of HMOX-1 gene expression” value [2] of the same compound?
A: capable to increase the gene activity; also recorded: caused the induction of HMOX-1 in astrocytes

Q: What about the “increase of PGK-1 gene activity” value [3] of the same compound?
A: capable to increase the gene activity

Q: And the “increase of VEGF gene activity” value [4]?
A: capable to increase the gene activity

Q: What about the “activation of EPO gene expression” value [5] of the same compound?
A: capable to increase the gene activity; also recorded: highest inductive effect

Q: What about the “inhibition of short-term memory impairment caused by fibrillar aggregates of amyloid peptides” value [6] of the same compound?
A: did not inhibit

Q: Which “activation of HMOX-1 gene expression” value [2] does the source give for `CN(C)Cc1ccc2c(Cl)cc(Cl)c(O)c2n1` [PBT2, reference compound] here?
A: did not induced differences in gene activity

Q: And the “activation of EPO gene expression” value [5]?
A: did not induced differences in gene activity

Q: `C=CC[C@@H]1/C=C(\C)C[C@H](C)C[C@H](OC)[C@H]2O[C@@](O)(C(=O)C(=O)N3CCCC[C@H]3C(=O)O[C@H](/C(C)=C/[C@@H]3CC[C@@H](O)[C@H](OC)C3)[C@H](C)[C@@H](O)CC1=O)[C@H](C)C[C@@H]2OC` [tacrolimus, reference compound] was tested. Which “skin graft rejection score (0-5)” value [7] did it give?
A: smaller score values both on day 9 and on day 10

From patent US10287265B2, “Enantiomers of 8-hydroxyquinoline derivatives and the synthesis thereof” (AVIDIN Co. Ltd., priority 2015, dated 2019)
